Assay results as given in patent US3969518A, “Inhibiting xanthine oxidase with 3-haloalkyl substituted benzothiadiazine-1,1-dioxides” (Merck & Co., Inc., priority 1972, dated 1976).

Target: xanthine oxidase (Bos taurus, UniProt P80457)
Experiment: in vitro xanthine oxidase inhibition (hypoxanthine substrate, absorbance at 292, pH 7.4 buffer; Baker et al procedure)
Assay type: biochemical
Conditions: 1 min, test compound at 2 × 10^-6 (footnote 1), hypoxanthine 6 × 10^-5 M solution, 1 minute
Protocol: The procedure used employed the principals described in J. Pharm.
A reference cuvette is filled with 0.05M pH 7.4 buffer. For the control, mix quickly in a cuvette 2 ml. hypoxanthine solution (6 × 10^-^5 M), 2 ml.

Chain of xanthine oxidase (P80457 whole entry): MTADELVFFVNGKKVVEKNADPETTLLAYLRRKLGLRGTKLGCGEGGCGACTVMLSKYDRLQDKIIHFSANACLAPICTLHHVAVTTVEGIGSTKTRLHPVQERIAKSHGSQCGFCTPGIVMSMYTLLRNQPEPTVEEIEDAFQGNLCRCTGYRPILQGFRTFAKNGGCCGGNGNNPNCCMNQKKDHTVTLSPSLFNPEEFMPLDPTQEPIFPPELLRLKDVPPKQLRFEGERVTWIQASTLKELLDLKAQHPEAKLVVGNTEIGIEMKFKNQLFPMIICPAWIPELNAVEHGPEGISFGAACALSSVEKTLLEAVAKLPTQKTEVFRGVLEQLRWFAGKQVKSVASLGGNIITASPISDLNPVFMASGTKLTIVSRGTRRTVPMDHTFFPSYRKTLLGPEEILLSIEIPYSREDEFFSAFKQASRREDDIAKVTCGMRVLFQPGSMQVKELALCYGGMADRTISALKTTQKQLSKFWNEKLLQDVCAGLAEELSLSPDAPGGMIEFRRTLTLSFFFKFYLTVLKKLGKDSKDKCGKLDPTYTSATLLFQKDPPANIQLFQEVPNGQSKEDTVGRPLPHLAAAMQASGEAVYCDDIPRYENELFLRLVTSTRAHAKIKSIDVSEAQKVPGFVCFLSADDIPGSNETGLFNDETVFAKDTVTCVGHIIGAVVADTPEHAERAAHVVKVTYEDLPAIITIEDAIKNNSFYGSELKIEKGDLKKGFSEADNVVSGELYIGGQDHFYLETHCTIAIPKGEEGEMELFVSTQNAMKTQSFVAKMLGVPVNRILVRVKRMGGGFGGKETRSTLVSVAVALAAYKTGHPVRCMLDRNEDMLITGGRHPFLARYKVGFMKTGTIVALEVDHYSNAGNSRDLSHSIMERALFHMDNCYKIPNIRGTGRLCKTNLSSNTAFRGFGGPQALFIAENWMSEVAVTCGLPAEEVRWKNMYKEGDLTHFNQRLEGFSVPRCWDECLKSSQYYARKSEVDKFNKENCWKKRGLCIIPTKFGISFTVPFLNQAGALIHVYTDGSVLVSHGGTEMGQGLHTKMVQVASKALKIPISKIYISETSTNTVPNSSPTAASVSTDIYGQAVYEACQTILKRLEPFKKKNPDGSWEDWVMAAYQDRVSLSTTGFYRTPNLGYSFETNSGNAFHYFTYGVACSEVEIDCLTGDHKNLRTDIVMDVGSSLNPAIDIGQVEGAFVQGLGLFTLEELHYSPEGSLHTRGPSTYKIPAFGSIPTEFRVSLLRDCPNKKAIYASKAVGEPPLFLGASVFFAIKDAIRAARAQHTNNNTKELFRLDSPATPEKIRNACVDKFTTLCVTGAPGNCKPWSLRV

inhibition at 2 µM [%] | SMILES
52 | CN(C)S(=O)(=O)c1cc2c(cc1Cl)N=C(CCl)NS2(=O)=O [3-Chloromethyl-6-chloro-7-N,N-dimethylsulfamoyl-1,2,4-benzothiadiazine-1,1-dioxide]

Same assay, conditions: test compound 2 × 10^-5 M, hypoxanthine 6 × 10^-5 M solution, 1 minute

inhibition at 20 µM [%] | SMILES
69 | CCCN(CCC)S(=O)(=O)c1cc2c(cc1Cl)N=C(CCl)NS2(=O)=O
16 | CNS(=O)(=O)c1cc2c(cc1Cl)NC(C(Cl)(Cl)Cl)NS2(=O)=O (centres unmarked)
26 | CCCN(CCC)S(=O)(=O)c1cc2c(c(Cl)c1Cl)N=C(C(Cl)(Cl)Cl)NS2(=O)=O
3 | CCN(CC)S(=O)(=O)c1cc2c(cc1Cl)N=C(C(Cl)(Cl)Cl)NS2(=O)=O
45 | NS(=O)(=O)c1cc2c(cc1Cl)NC(C(Cl)(Cl)Cl)NS2(=O)=O (centres unmarked)
18 | CCN(CC)S(=O)(=O)c1cc2c(cc1Cl)N=C(C(Cl)Cl)NS2(=O)=O
12 | CCCN(CCC)S(=O)(=O)c1cc2c(cc1Cl)N=C(C(Cl)Cl)NS2(=O)=O
53 | C=CCN(CC=C)S(=O)(=O)c1cc2c(cc1Cl)N=C(CCl)NS2(=O)=O
13 | CN(C)S(=O)(=O)c1cc2c(cc1Cl)N=C(C(C)(Cl)Cl)NS2(=O)=O
30 | CCCN(CCC)S(=O)(=O)c1cc2c(cc1Cl)N=C(CBr)NS2(=O)=O
33 | CCCN(CCC)S(=O)(=O)c1cc2c(c(Cl)c1Cl)N=C(CCl)NS2(=O)=O
6 | CCCN(CCC)S(=O)(=O)c1cc2c(cc1Cl)NC(C(Cl)(Cl)Cl)NS2(=O)=O (centres unmarked) [3-Trichloromethyl-6-chloro-7-N,N-di-n-propylsulfamoyl-3,4-dihydro-1,2,4-benzothiadiazine-1,1-dioxide]

Continued, molecule first:

SMILES | inhibition at 20 µM [%]
CCNS(=O)(=O)c1cc2c(cc1Cl)NC(C(Cl)(Cl)Cl)NS2(=O)=O (centres unmarked) | 63
C=CCN(CC=C)S(=O)(=O)c1cc2c(cc1Cl)NC(C(Cl)(Cl)Cl)NS2(=O)=O (centres unmarked) | 6
CCN(CC)S(=O)(=O)c1cc2c(cc1Cl)N=C(CCl)NS2(=O)=O | 75
CCCN(CCC)S(=O)(=O)c1cc2c(c(Cl)c1Cl)N=C(C(Cl)Cl)NS2(=O)=O | 21
CNS(=O)(=O)c1cc2c(cc1Cl)N=C(CCl)NS2(=O)=O | 78
CCCN(CCC)S(=O)(=O)c1cc2c(cc1Cl)N=C(C(Cl)(Cl)Cl)NS2(=O)=O | 14
CCNS(=O)(=O)c1cc2c(cc1Cl)N=C(C(Cl)Cl)NS2(=O)=O | 6
NS(=O)(=O)c1cc2c(cc1Cl)N=C(CCl)NS2(=O)=O | 24
CN(C)S(=O)(=O)c1cc2c(cc1Cl)N=C(C(Cl)(Cl)Cl)NS2(=O)=O | 5
CN(C)S(=O)(=O)c1cc2c(cc1Cl)N=C(C(Cl)Cl)NS2(=O)=O | 11
